Source: ChEMBL document CHEMBL5325422, “Design and synthesis of fascaplysin derivatives as inhibitors of FtsZ with potent antibacterial activity and mechanistic study” (Eur J Med Chem, 2023)
Calls of active or inactive are those of the source. The rule behind the calls is not given here.

What was measured:
Staphylococcus aureus [1] = assay: Antibacterial activity against methicillin-resistant Staphylococcus aureus ATCC43300 assessed as bacterial growth inhibition incubated for 18 to 24 hrs by microbroth dilution method; assay type: functional; conditions: time 18-24 hrs
Bacillus subtilis [2] = assay: Antibacterial activity against Bacillus subtilis BNCC336690 assessed as bacterial growth inhibition incubated for 18 to 24 hrs by microbroth dilution method; assay type: functional; conditions: time 18-24 hrs
Streptococcus pneumoniae = assay: Antibacterial activity against Streptococcus pneumoniae ATCC49619 assessed as bacterial growth inhibition incubated for 18 to 24 hrs by microbroth dilution method; assay type: functional; conditions: time 18-24 hrs
Escherichia coli = assay: Antibacterial activity against penicillin-susceptible Escherichia coli ATCC25922 assessed as bacterial growth inhibition incubated for 18 to 24 hrs by microbroth dilution method; assay type: functional; conditions: time 18-24 hrs
Staphylococcus aureus [3] = assay: Antibacterial activity against methicillin-resistant Staphylococcus aureus ATCC43300 assessed as log10 CFU reduction at 1 to 4 times MIC measured for 1 hr by time-killing assay; assay type: functional
[4] = biological target: T1, Cell division protein FtsZ (Escherichia coli K-12) (UniProt P0A9A6); assay: Inhibition of recombinant Escherichia coli FtsZ expressed in Escherichia coli BL21 assessed as induction of FtsZ polymerization at 4 ug/ml incubated for 10 mins by light scattering assay; conditions: dose 4.0 µg/ml
T1 sequence (whole entry): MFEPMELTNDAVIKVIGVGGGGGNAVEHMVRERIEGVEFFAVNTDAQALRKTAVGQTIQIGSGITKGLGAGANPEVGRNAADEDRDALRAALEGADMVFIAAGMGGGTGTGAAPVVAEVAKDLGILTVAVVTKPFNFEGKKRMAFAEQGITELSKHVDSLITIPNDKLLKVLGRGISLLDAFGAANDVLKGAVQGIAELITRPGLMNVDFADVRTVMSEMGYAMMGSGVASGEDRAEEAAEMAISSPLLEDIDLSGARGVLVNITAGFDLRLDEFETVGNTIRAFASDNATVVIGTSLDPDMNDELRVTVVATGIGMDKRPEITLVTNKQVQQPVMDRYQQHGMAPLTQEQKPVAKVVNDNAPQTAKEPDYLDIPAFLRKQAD

Staphylococcus aureus [5] = assay: Inhibition of biofilm formation in methicillin-resistant Staphylococcus aureus ATCC43300 at 0.024 ug/ml incubated for 24 hrs by crystal violet staining based assay relative to control; assay type: functional
[6] = Hemolytic activity in human erythrocytes assessed as release of hemoglobin level at 12.5 ug/ml incubated for 1 hr by absorbance based assay relative to control; assay type: toxicity, cell-based, Erythrocyte; conditions: at 12.5 µg/mL, read-out: Activity
Bacillus subtilis [7] = assay: Antibacterial activity against Bacillus subtilis BNCC336690 assessed as increase in cell length at 0.5 times MIC incubated for 4 hrs by microscopic analysis; assay type: functional, organism-based
Staphylococcus aureus [8] = assay: Antibacterial activity against drug-resistant Staphylococcus aureus ATCC43300 assessed as inhibition of resistance development at 0.5 times MIC after 25 passages incubated for 18 to 24 hrs by microbroth dilution method; assay type: functional, organism-based; conditions: time 18-24 hrs
Staphylococcus aureus [9] = assay: Antibacterial activity against methicillin-resistant Staphylococcus aureus ATCC43300 assessed as wrinkling cell surface at 4 times MIC incubated for 2 hrs by SEM analysis; assay type: functional, organism-based
[10] = Cytotoxicity against mouse RAW264.7 cells assessed as cell survival at 25 ug/ml incubated for 24 hrs by CCK8 assay relative to control; assay type: toxicity, cell-based; conditions: at 25 µg/mL, read-out: Activity
[11] = Cytotoxicity against mouse RAW264.7 cells assessed as cell survival at 50 ug/ml incubated for 24 hrs by CCK8 assay relative to control; assay type: toxicity, cell-based; conditions: at 50 µg/mL, read-out: Activity
Staphylococcus aureus [12] = assay: Antibacterial activity against methicillin-resistant Staphylococcus aureus ATCC43300 assessed as filamentation on cell surface at 4 times MIC incubated for 2 hrs by SEM analysis; assay type: functional, organism-based
[13] = biological target: T1, Cell division protein FtsZ (Escherichia coli K-12); assay: Inhibition of recombinant Escherichia coli FtsZ expressed in Escherichia coli BL21 assessed as induction of FtsZ polymerization incubated for 10 mins by light scattering assay; conditions: dose 1-4 µg/ml
[14] = Cytotoxicity against mouse RAW264.7 cells assessed as cell survival at 12.5 ug/ml incubated for 24 hrs by CCK8 assay relative to control; assay type: toxicity, cell-based; conditions: at 12.5 µg/mL, read-out: Activity
Staphylococcus aureus [15] = assay: Inhibition of biofilm formation in methicillin-resistant Staphylococcus aureus ATCC43300 at 0.012 ug/ml incubated for 24 hrs by crystal violet staining based assay relative to control; assay type: functional
Staphylococcus aureus [16] = assay: Inhibition of biofilm formation in methicillin-resistant Staphylococcus aureus ATCC43300 at 0.049 ug/ml incubated for 24 hrs by crystal violet staining based assay relative to control; assay type: functional
[17] = biological target: T1, Cell division protein FtsZ (Escherichia coli K-12); assay: Inhibition of recombinant Escherichia coli FtsZ expressed in Escherichia coli BL21 assessed as reduction in GTPase activity incubated for 30 mins by malachite green phosphate staining based assay; conditions: dose 0.02-0.64 µg/ml
[18] = biological target: T1, Cell division protein FtsZ (Escherichia coli K-12); assay: Inhibition of recombinant Escherichia coli FtsZ expressed in Escherichia coli BL21 assessed as bundling of FtsZ filaments at 4 ug/ml incubated for 10 mins by TEM analysis; conditions: dose 4.0 µg/ml
Staphylococcus aureus [19] = assay: Inhibition of biofilm formation in methicillin-resistant Staphylococcus aureus ATCC43300 incubated for 24 hrs by crystal violet staining based assay; assay type: functional, organism-based; conditions: dose 0.012-12.5 µg/ml
Staphylococcus aureus [20] = assay: Antibacterial activity against methicillin-resistant Staphylococcus aureus ATCC43300 assessed as log10 CFU reduction at 1 to 4 times MIC measured after 4 hrs by time-killing assay; assay type: functional
Staphylococcus aureus [21] = assay: Antibacterial activity against methicillin-resistant Staphylococcus aureus ATCC43300 assessed as bacterial count reduction at 2 times MIC measured after 10 hrs by time-killing assay; assay type: functional, organism-based
[22] = biological target: T1, Cell division protein FtsZ (Escherichia coli K-12); assay: Inhibition of recombinant Escherichia coli FtsZ expressed in Escherichia coli BL21 assessed as reduction in GTPase activity at 0.32 ug/ml incubated for 30 mins by malachite green phosphate staining based assay relative to control; conditions: dose 0.32 µg/ml

Question: For `COc1cccc(NC(=O)c2ccc3[nH]c4c5[n+](ccc4c3c2)-c2ccccc2C5=O)c1.[Br-]`, which MIC (Staphylococcus aureus [1]) is on record?
Answer: 0.39 µg/mL

Question: What about the MIC (Bacillus subtilis [2]) of the same compound?
Answer: 0.195 µg/mL

Question: What about the MIC (Streptococcus pneumoniae) of the same compound?
Answer: 0.39 µg/mL

Question: What about the MIC (Escherichia coli) of the same compound?
Answer: > 200 µg/mL

Question: What does the source list for `CCCCNC(=O)c1ccc2[nH]c3c4[n+](ccc3c2c1)-c1ccccc1C4=O.[Br-]`?
Answer: MIC (Staphylococcus aureus [1]): 6.25 µg/mL; MIC (Bacillus subtilis [2]): 3.12 µg/mL; MIC (Streptococcus pneumoniae): 3.12 µg/mL; MIC (Escherichia coli): > 200 µg/mL

Question: Which results are given for `CCCCc1ccc(NC(=O)c2ccc3[nH]c4c5[n+](ccc4c3c2)-c2ccccc2C5=O)cc1.[Br-]`?
Answer: MIC (Staphylococcus aureus [1]): 3.12 µg/mL; MIC (Bacillus subtilis [2]): 0.049 µg/mL; MIC (Streptococcus pneumoniae): 0.78 µg/mL; MIC (Escherichia coli): > 200 µg/mL

Question: Which results are given for `CCCCCCNC(=O)c1ccc2[nH]c3c4[n+](ccc3c2c1)-c1ccccc1C4=O.[Br-]`?
Answer: MIC (Staphylococcus aureus [1]): 0.39 µg/mL; MIC (Bacillus subtilis [2]): 0.39 µg/mL; MIC (Streptococcus pneumoniae): 0.39 µg/mL; MIC (Escherichia coli): > 200 µg/mL

Question: Which Activity (Staphylococcus aureus [3]) does the source give for `CCCCCCCCNC(=O)c1ccc2[nH]c3c4[n+](ccc3c2c1)-c1ccccc1C4=O.[Br-]` here?
Answer: 2 log10CFU/ml

Question: What about the inhibition [4] of the same compound?
Answer: Active

Question: What about the inhibition at 0.024 µg/mL (Staphylococcus aureus [5]) of the same compound?
Answer: ~42.7%

Question: And the hemolysis at 1 h, 12.5 ug/ml [6]?
Answer: 0%

Question: And the Activity (Bacillus subtilis [7])?
Answer: Active

Question: What about the MIC (Staphylococcus aureus [1]) of the same compound?
Answer: 0.098 µg/mL

Question: And the inhibition (Staphylococcus aureus [8])?
Answer: inactive

Question: And the Activity (Staphylococcus aureus [9])?
Answer: Active

Question: And the MIC (Bacillus subtilis [2])?
Answer: 0.098 µg/mL

Question: And the viability at 24 h, 25 ug/ml [10]?
Answer: 84.1%

Question: What about the viability at 24 h, 50 ug/ml [11] of the same compound?
Answer: 73.3%

Question: What about the Activity (Staphylococcus aureus [12]) of the same compound?
Answer: Active

Question: What about the inhibition [13] of the same compound?
Answer: Dose-Dependent Effect

Question: And the viability at 24 h, 12.5 ug/ml [14]?
Answer: 103%

Question: And the MIC (Streptococcus pneumoniae)?
Answer: 0.39 µg/mL

Question: And the inhibition at 0.012 µg/mL (Staphylococcus aureus [15])?
Answer: ~11.9%

Question: And the MIC (Escherichia coli)?
Answer: > 200 µg/mL

Question: What about the inhibition at 0.049 µg/mL (Staphylococcus aureus [16]) of the same compound?
Answer: 82.6%

Question: And the inhibition [17]?
Answer: Dose-Dependent Effect

Question: And the inhibition [18]?
Answer: Active

Question: And the inhibition (Staphylococcus aureus [19])?
Answer: Dose-Dependent Effect

Question: Which Activity (Staphylococcus aureus [20]) does the source give for `Cc1cccc(NC(=O)c2ccc3[nH]c4c5[n+](ccc4c3c2)-c2ccccc2C5=O)c1.[Br-]` here?
Answer: 2 log10CFU/ml

Question: And the inhibition [4]?
Answer: Active

Question: And the hemolysis at 1 h, 12.5 ug/ml [6]?
Answer: 0%

Question: What about the Activity (Bacillus subtilis [7]) of the same compound?
Answer: Active

Question: What about the MIC (Staphylococcus aureus [1]) of the same compound?
Answer: 0.098 µg/mL

Question: And the inhibition (Staphylococcus aureus [8])?
Answer: inactive

Question: And the Activity (Staphylococcus aureus [9])?
Answer: Active

Question: What about the MIC (Bacillus subtilis [2]) of the same compound?
Answer: 0.049 µg/mL

Question: And the viability at 24 h, 25 ug/ml [10]?
Answer: 106%

Question: What about the viability at 24 h, 50 ug/ml [11] of the same compound?
Answer: 101%

Question: And the Activity (Staphylococcus aureus [12])?
Answer: Active

Question: What about the inhibition [13] of the same compound?
Answer: Dose-Dependent Effect

Question: What about the viability at 24 h, 12.5 ug/ml [14] of the same compound?
Answer: 104%

Question: What about the MIC (Streptococcus pneumoniae) of the same compound?
Answer: 0.098 µg/mL

Question: What about the MIC (Escherichia coli) of the same compound?
Answer: > 200 µg/mL

Question: What about the inhibition [17] of the same compound?
Answer: Dose-Dependent Effect

Question: And the inhibition [18]?
Answer: Active

Question: With `Cc1ccc(NC(=O)c2ccc3[nH]c4c5[n+](ccc4c3c2)-c2ccccc2C5=O)cc1.[Br-]` as the compound, how does the MIC (Staphylococcus aureus [1]) read?
Answer: 0.78 µg/mL

Question: And the MIC (Bacillus subtilis [2])?
Answer: 0.195 µg/mL

Question: What about the MIC (Streptococcus pneumoniae) of the same compound?
Answer: 0.39 µg/mL

Question: What about the MIC (Escherichia coli) of the same compound?
Answer: > 200 µg/mL

Question: For `CN[C@H](CC(C)C)C(=O)N[C@H]1C(=O)N[C@@H](CC(N)=O)C(=O)N[C@H]2C(=O)N[C@H]3C(=O)N[C@H](C(=O)N[C@H](C(=O)O)c4cc(O)cc(O)c4-c4cc3ccc4O)[C@H](O)c3ccc(c(Cl)c3)Oc3cc2cc(c3O[C@@H]2O[C@H](CO)[C@@H](O)[C@H](O)[C@H]2O[C@H]2C[C@](C)(N)[C@H](O)[C@H](C)O2)Oc2ccc(cc2Cl)[C@H]1O` [VANCOMYCIN], which Activity (Staphylococcus aureus [21]) is on record?
Answer: inactive

Question: What about the MIC (Escherichia coli) of the same compound?
Answer: > 200 µg/mL

Question: Which results are given for `CC(C)c1ccccc1NC(=O)c1ccc2[nH]c3c4[n+](ccc3c2c1)-c1ccccc1C4=O.[Br-]`?
Answer: MIC (Staphylococcus aureus [1]): 12.5 µg/mL; MIC (Bacillus subtilis [2]): 6.25 µg/mL; MIC (Streptococcus pneumoniae): 50 µg/mL; MIC (Escherichia coli): > 200 µg/mL

Question: For `CC(C)c1cccc(NC(=O)c2ccc3[nH]c4c5[n+](ccc4c3c2)-c2ccccc2C5=O)c1.[Br-]`, which Activity (Staphylococcus aureus [20]) is on record?
Answer: 2 log10CFU/ml

Question: And the hemolysis at 1 h, 12.5 ug/ml [6]?
Answer: 0%

Question: What about the Activity (Bacillus subtilis [7]) of the same compound?
Answer: Active

Question: And the MIC (Staphylococcus aureus [1])?
Answer: 0.098 µg/mL

Question: What about the inhibition (Staphylococcus aureus [8]) of the same compound?
Answer: inactive

Question: And the Activity (Staphylococcus aureus [9])?
Answer: Active

Question: And the MIC (Bacillus subtilis [2])?
Answer: 0.098 µg/mL

Question: And the viability at 24 h, 25 ug/ml [10]?
Answer: 100%

Question: And the viability at 24 h, 50 ug/ml [11]?
Answer: 98.2%

Question: What about the Activity (Staphylococcus aureus [12]) of the same compound?
Answer: Active

Question: And the inhibition [13]?
Answer: Dose-Dependent Effect

Question: What about the viability at 24 h, 12.5 ug/ml [14] of the same compound?
Answer: 98.8%

Question: And the inhibition [22]?
Answer: 40%

Question: What about the MIC (Streptococcus pneumoniae) of the same compound?
Answer: 0.049 µg/mL

Question: What about the MIC (Escherichia coli) of the same compound?
Answer: > 200 µg/mL

Question: And the inhibition [17]?
Answer: Dose-Dependent Effect

Question: What about the inhibition [18] of the same compound?
Answer: Active
